In PubChem BioAssay (NCI):
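Following 48 hours of exposure in 96-well plates, responses at five concentrations were used to interpolate endpoints linearly. TGI: total growth inhibition.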

Key:
Experiment in all cases: NCI tumour cell line growth inhibition, 48 h
HL-60(TB) leukemia = tested on: HL-60(TB) leukemia
NCI-H460 lung = tested on: NCI-H460 lung
SF-539 CNS = tested on: SF-539 CNS
MOLT-4 leukemia = tested on: MOLT-4 leukemia
UACC-62 melanoma = tested on: UACC-62 melanoma
TK-10 renal = tested on: TK-10 renal
SK-OV-3 ovarian = tested on: SK-OV-3 ovarian
XF 498 CNS = tested on: XF 498 CNS
UACC-257 melanoma = tested on: UACC-257 melanoma
LOX IMVI melanoma = tested on: LOX IMVI melanoma
SNB-78 CNS = tested on: SNB-78 CNS
HOP-62 NSCLC = tested on: HOP-62 NSCLC
SF-295 CNS = tested on: SF-295 CNS
MALME-3M melanoma = tested on: MALME-3M melanoma
SK-MEL-28 melanoma = tested on: SK-MEL-28 melanoma
M14 melanoma = tested on: M14 melanoma
CCRF-CEM leukemia = tested on: CCRF-CEM leukemia
HOP-92 NSCLC = tested on: HOP-92 NSCLC
SK-MEL-5 melanoma = tested on: SK-MEL-5 melanoma
DLD-1 colon = tested on: DLD-1 colon
UO-31 renal = tested on: UO-31 renal
LXFL 529 NSCLC = tested on: LXFL 529 NSCLC
K-562 leukemia = tested on: K-562 leukemia
KM20L2 colon = tested on: KM20L2 colon
EKVX NSCLC = tested on: EKVX NSCLC
OVCAR-4 ovarian = tested on: OVCAR-4 ovarian
A498 renal = tested on: A498 renal
OVCAR-5 ovarian = tested on: OVCAR-5 ovarian
NCI-H226 lung = tested on: NCI-H226 lung
M19-MEL melanoma = tested on: M19-MEL melanoma
COLO 205 colon = tested on: COLO 205 colon
HCT-116 colon = tested on: HCT-116 colon
SN12C renal = tested on: SN12C renal
CAKI-1 renal = tested on: CAKI-1 renal
RPMI-8226 leukemia = tested on: RPMI-8226 leukemia
NCI-H522 lung = tested on: NCI-H522 lung
SR leukemia = tested on: SR leukemia
NCI-H23 lung = tested on: NCI-H23 lung
U251 CNS = tested on: U251 CNS
SNB-19 CNS = tested on: SNB-19 CNS
SNB-75 CNS = tested on: SNB-75 CNS
OVCAR-3 ovarian = tested on: OVCAR-3 ovarian
786-0 renal = tested on: 786-0 renal
HOP-18 NSCLC = tested on: HOP-18 NSCLC
RXF 393 renal = tested on: RXF 393 renal
SF-268 CNS = tested on: SF-268 CNS
SW-620 colon = tested on: SW-620 colon
HCC-2998 colon = tested on: HCC-2998 colon
A549 NSCLC = tested on: A549 NSCLC
HCT-15 colon = tested on: HCT-15 colon
IGROV1 ovarian = tested on: IGROV1 ovarian
RXF-631 renal = tested on: RXF-631 renal
DMS 114 small cell lung = tested on: DMS 114 small cell lung
OVCAR-8 ovarian = tested on: OVCAR-8 ovarian
KM12 colon = tested on: KM12 colon
HT29 colon = tested on: HT29 colon
ACHN renal = tested on: ACHN renal
DMS 273 small cell lung = tested on: DMS 273 small cell lung
SK-MEL-2 melanoma = tested on: SK-MEL-2 melanoma

`C[C@H](OCc1ccccc1)C(=O)N1CCS(=O)(=O)N2CCC[C@@H]2C1=O` was tested, and the TGI (HL-60(TB) leukemia) was over 100 µM, the TGI (NCI-H460 lung) was over 100 µM and the TGI (SF-539 CNS) was over 100 µM. For the same molecule, the TGI (MOLT-4 leukemia) was over 100 µM, the TGI (UACC-62 melanoma) was over 100 µM and the TGI (TK-10 renal) was over 100 µM. The TGI (SK-OV-3 ovarian) was over 100 µM, the TGI (XF 498 CNS) was 94.7 µM and the TGI (UACC-257 melanoma) was over 100 µM. For the same molecule, the TGI (LOX IMVI melanoma) was over 100 µM, the TGI (SNB-78 CNS) was over 100 µM and the TGI (HOP-62 NSCLC) was over 100 µM. The TGI (SF-295 CNS) was over 100 µM, the TGI (MALME-3M melanoma) was over 100 µM and the TGI (SK-MEL-28 melanoma) was over 100 µM. It also gave a TGI (M14 melanoma) of over 100 µM, a TGI (CCRF-CEM leukemia) of over 100 µM and a TGI (HOP-92 NSCLC) of over 100 µM. It also gave a TGI (SK-MEL-5 melanoma) of over 100 µM, a TGI (DLD-1 colon) of over 100 µM and a TGI (UO-31 renal) of over 100 µM. For the same molecule, the TGI (LXFL 529 NSCLC) was over 100 µM, the TGI (K-562 leukemia) was over 100 µM and the TGI (KM20L2 colon) was over 100 µM. The TGI (EKVX NSCLC) was over 100 µM, the TGI (OVCAR-4 ovarian) was over 100 µM and the TGI (A498 renal) was over 100 µM. For the same molecule, the TGI (OVCAR-5 ovarian) was over 100 µM, the TGI (NCI-H226 lung) was over 100 µM and the TGI (M19-MEL melanoma) was over 100 µM. For the same molecule, the TGI (COLO 205 colon) was over 100 µM, the TGI (HCT-116 colon) was over 100 µM and the TGI (SN12C renal) was over 100 µM. For the same molecule, the TGI (CAKI-1 renal) was over 100 µM, the TGI (RPMI-8226 leukemia) was over 100 µM and the TGI (NCI-H522 lung) was over 100 µM. It also gave a TGI (SR leukemia) of over 100 µM, a TGI (NCI-H23 lung) of over 100 µM and a TGI (U251 CNS) of over 100 µM. For the same molecule, the TGI (SNB-19 CNS) was over 100 µM, the TGI (SNB-75 CNS) was over 100 µM and the TGI (OVCAR-3 ovarian) was over 100 µM. For the same molecule, the TGI (786-0 renal) was over 100 µM, the TGI (HOP-18 NSCLC) was over 100 µM and the TGI (RXF 393 renal) was over 100 µM. The TGI (SF-268 CNS) was over 100 µM, the TGI (SW-620 colon) was over 100 µM and the TGI (HCC-2998 colon) was over 100 µM. It also gave a TGI (A549 NSCLC) of over 100 µM, a TGI (HCT-15 colon) of over 100 µM and a TGI (IGROV1 ovarian) of over 100 µM. It also gave a TGI (RXF-631 renal) of over 100 µM, a TGI (DMS 114 small cell lung) of over 100 µM and a TGI (OVCAR-8 ovarian) of over 100 µM. The TGI (KM12 colon) was over 100 µM, the TGI (HT29 colon) was over 100 µM and the TGI (ACHN renal) was over 100 µM.
For `O=C(c1ccc(Cl)cc1Cl)C1[C@H]2C(=O)N(c3ccc(Cc4ccc(N5C(=O)[C@@H]6ON(c7ccccc7)C(C(=O)c7ccc(Cl)cc7Cl)[C@@H]6C5=O)cc4)cc3)C(=O)[C@H]2ON1c1ccccc1` (stereo partly drawn), the TGI (HL-60(TB) leukemia) was over 50 µM, the TGI (NCI-H460 lung) was over 50 µM and the TGI (SF-539 CNS) was over 50 µM. For the same molecule, the TGI (DMS 273 small cell lung) was over 50 µM, the TGI (MOLT-4 leukemia) was over 50 µM and the TGI (UACC-62 melanoma) was over 50 µM. For the same molecule, the TGI (TK-10 renal) was over 50 µM, the TGI (SK-OV-3 ovarian) was over 50 µM and the TGI (UACC-257 melanoma) was over 50 µM. It also gave a TGI (LOX IMVI melanoma) of over 50 µM, a TGI (SNB-78 CNS) of over 50 µM and a TGI (HOP-62 NSCLC) of over 50 µM. It also gave a TGI (SF-295 CNS) of over 50 µM, a TGI (MALME-3M melanoma) of over 50 µM and a TGI (SK-MEL-28 melanoma) of over 50 µM. It also gave a TGI (M14 melanoma) of over 50 µM, a TGI (CCRF-CEM leukemia) of over 50 µM and a TGI (SK-MEL-5 melanoma) of over 50 µM. The TGI (DLD-1 colon) was over 50 µM, the TGI (UO-31 renal) was over 50 µM and the TGI (SK-MEL-2 melanoma) was over 50 µM. The TGI (LXFL 529 NSCLC) was over 50 µM, the TGI (K-562 leukemia) was over 50 µM and the TGI (KM20L2 colon) was over 50 µM. For the same molecule, the TGI (OVCAR-4 ovarian) was over 50 µM, the TGI (A498 renal) was over 50 µM and the TGI (OVCAR-5 ovarian) was over 50 µM. It also gave a TGI (NCI-H226 lung) of over 50 µM, a TGI (M19-MEL melanoma) of over 50 µM and a TGI (COLO 205 colon) of over 50 µM. For the same molecule, the TGI (HCT-116 colon) was over 50 µM, the TGI (SN12C renal) was over 50 µM and the TGI (CAKI-1 renal) was over 50 µM. The TGI (RPMI-8226 leukemia) was over 50 µM, the TGI (NCI-H522 lung) was over 50 µM and the TGI (SR leukemia) was over 50 µM. The TGI (NCI-H23 lung) was over 50 µM, the TGI (U251 CNS) was over 50 µM and the TGI (SNB-19 CNS) was over 50 µM. It also gave a TGI (SNB-75 CNS) of over 50 µM, a TGI (OVCAR-3 ovarian) of over 50 µM and a TGI (786-0 renal) of over 50 µM. The TGI (HOP-18 NSCLC) was over 50 µM, the TGI (RXF 393 renal) was over 50 µM and the TGI (SF-268 CNS) was over 50 µM. The TGI (SW-620 colon) was over 50 µM, the TGI (HCC-2998 colon) was over 50 µM and the TGI (A549 NSCLC) was over 50 µM. For the same molecule, the TGI (HCT-15 colon) was over 50 µM, the TGI (IGROV1 ovarian) was over 50 µM and the TGI (RXF-631 renal) was over 50 µM. It also gave a TGI (DMS 114 small cell lung) of over 50 µM, a TGI (OVCAR-8 ovarian) of over 50 µM and a TGI (KM12 colon) of over 50 µM. For the same molecule, the TGI (HT29 colon) was over 50 µM and the TGI (ACHN renal) was over 50 µM.
